Assay [1] concerns HBsAg antigen-specific IFN-γ. Further details: species or system C57BL/6(N) mice. To be noted: mouse, in vivo.
Assay [2] has as its system HBcAg antigen-specific IFN-γ. Further details: species or system C57BL/6(N) mice. To be noted: mouse, in vivo.
The subject of assay [3] is herpes gE antigen-specific IFN-γ. The settings on record: CpG T1 10 + saponin 5 + gE 5 μg/mouse; FIG. 15.
Method: Experimental steps: on Day 7 after the immunization of mice, the spleen lymphocytes were prepared according to a conventional method, and the details were as follows: the spleens were taken aseptically by being cut with sterile forceps and scissors, and placed in a 70 μm cell strainer, which was placed in a plate containing 2 ml of pre-chilled 2% FBS (purchased from GIBCO)-PBS; the spleens were ground using a grinding rod, and the spleen cells entered the plate through the meshes to obtain a cell suspension, and then the suspension was filtered by a 40 μm cell strainer (purchased from BD) and put into a 50 ml sterile centrifuge tube by using a Pasteur pipet; it was centrifuged at 500×g at 4° C. for 5 min; the supernatant was discarded, and then 2 ml of 1×erythrocyte disruption agent (purchased from BD) was added to re-suspend the cells, and the resultant was allowed to stand for 5 min at 4° C., protected from light to disrupt the red blood cells; 10 ml of 2% FBS-PBS was added to terminate the erythrocyte disruption reaction; the resultant was centrifuged at 500×g at 4° C. for 5 min, the supernatant was discarded, and then 5 ml of 2% FBS-PBS was added to re-suspend the cells for later use.
C57BL/6(N) mice, female, 5 weeks old, 48 mice, purchased from Shanghai SLRC Laboratory Animal Co. Ltd.
2) QS-21 (CAS: NO. […]

“TCGTCGTTTTGTCGTTTTGTCGTT (SEQ ID NO: 4) [CpG 7909]”: the “immune effect: induced production level of HBsAg-specific IFN-γ” value (shortened to “immune effect … of HBsAg-specific IFN-γ”) in assay [1] is “superior to the CpG adjuvants of type A and the CpG adjuvants of type C”. The “immune effect: induced production level of HBcAg-specific IFN-γ” value (shortened to “immune effect … of HBcAg-specific IFN-γ”) in assay [2] is “superior to the CpG adjuvants of type A and the CpG adjuvants of type C”.

Turning to “TGACTGTGAACGTTCGAGATGA (SEQ ID NO: 3) [CpG 1018]”, the “immune effect … of HBsAg-specific IFN-γ” value in assay [1] was “superior to the CpG adjuvants of type A and the CpG adjuvants of type C”. For the same substance, the “immune effect … of HBcAg-specific IFN-γ” value in assay [2] is “superior to the CpG adjuvants of type A and the CpG adjuvants of type C”. Take “TCCATGACGTTCCTGACGTT (SEQ ID NO: 5) [CpG 1826]”: the “immune effect … of HBsAg-specific IFN-γ” value in assay [1] is “superior to the CpG adjuvants of type A and the CpG adjuvants of type C”. Besides, the “immune effect … of HBcAg-specific IFN-γ” value in assay [2] is “superior to the CpG adjuvants of type A and the CpG adjuvants of type C”. With “TCGACGTTCGTCGTTCGTCGTTC (SEQ ID NO: 9) [CpG 684]”, the “immune effect … of HBsAg-specific IFN-γ” value in assay [1] was “superior to the CpG adjuvants of type A and the CpG adjuvants of type C”. The “immune effect … of HBcAg-specific IFN-γ” value in assay [2] was “superior to the CpG adjuvants of type A and the CpG adjuvants of type C”. As to QS-21 [QS21], the “induced production level of gE-specific IFN-γ” value in assay [3] is reported as “the best effect”. Take “TGTCGTCGTCGTTTGTCGTTTGTCGTT (SEQ ID NO: 11) [CPG D2]”: the “immune effect … of HBsAg-specific IFN-γ” value in assay [1] was “lower than those induced by the CpG adjuvants of type A and the CpG adjuvants of type C”. The “immune effect … of HBcAg-specific IFN-γ” value in assay [2] is “lower than those induced by the CpG adjuvants of type A and the CpG adjuvants of type C”.

The values are drawn from patent publication US20230040021A1 (priority 2019, published 2023).
